PMC8920097, “Prediction of hERG inhibition of drug discovery compounds using biomimetic HPLC measurements” (ADMET & DMPK, 2021)
Like-named read-outs stand apart in the source and are kept apart here.

Columns and labels:
[1] = system: alpha-1-acid-glycoprotein (AGP); test: Protein binding on Chiralpak AGP HPLC column
Procedure: (§1) The measurement of the biomimetic properties of the available drugs was conducted in our laboratories. Generic gradient HPLC methods were used to determine the chromatographic hydrophobicity Index (CHI) using mobile phases at three different pH values. The protein binding of the compounds was measured using immobilised human serum albumin (HSA), and alpha-1-acid-glycoprotein (AGP) stationary phases. The phospholipid-binding was measured using the immobilised artificial membrane (IAM) stationary phase. The aim was to establish relationships between the cardiotoxicity potential and the biomimetic binding properties of the drugs and to evaluate their predictive performance.

[2] = biological target: human serum albumin (HSA) (Homo sapiens, UniProt P02768); test: Protein binding on Chiralpak HSA HPLC column
human serum albumin (HSA), sequence (P02768 25-609): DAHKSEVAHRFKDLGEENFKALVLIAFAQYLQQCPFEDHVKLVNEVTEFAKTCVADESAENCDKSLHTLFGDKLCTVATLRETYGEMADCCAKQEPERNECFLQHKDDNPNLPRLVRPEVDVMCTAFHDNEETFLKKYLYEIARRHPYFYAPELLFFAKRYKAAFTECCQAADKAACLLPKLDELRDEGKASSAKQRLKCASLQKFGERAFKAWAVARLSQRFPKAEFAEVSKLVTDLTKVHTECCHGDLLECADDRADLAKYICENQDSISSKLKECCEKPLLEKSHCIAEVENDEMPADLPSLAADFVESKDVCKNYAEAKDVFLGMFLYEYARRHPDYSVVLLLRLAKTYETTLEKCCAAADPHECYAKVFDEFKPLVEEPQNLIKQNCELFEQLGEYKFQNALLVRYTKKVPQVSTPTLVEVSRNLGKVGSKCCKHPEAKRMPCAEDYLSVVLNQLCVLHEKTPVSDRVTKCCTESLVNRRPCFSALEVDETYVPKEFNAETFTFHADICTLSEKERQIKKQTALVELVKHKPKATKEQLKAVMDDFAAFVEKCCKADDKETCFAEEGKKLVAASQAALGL
Procedure: as §1

[3] = CHI lipophilicity by gradient reversed-phase HPLC (Gemini NX-C-18); conditions: for chromatographic logD: Gemini NX-C-18 reversed-phase HPLC column, pH 7.4; for chromatographic logP: reversed-phase HPLC, Gemini NX-C-18 column (50 x 3 mm, 5 µm)
Procedure: The Chromatographic Hydrophobicity Index (CHI) was measured using the compounds’ calibrated gradient retention times obtained from an Agilent 1100 HPLC fitted with a Gemini NX-C-18 column (Phenomenex Ltd Macclesfield, UK) with dimensions of 50 x 3 mm and 5 μm particle size. […] The mobile phase B was 100 % acetonitrile. […] An acetonitrile linear gradient was used from 0 to 100 %. […] The retention time values for a standard set of compounds listed in Table 1 were used to convert the drug retention times to CHI values.

[4] = Charge character of the drugs at pH 7.4; format: physicochemical
[5] = Phospholipid binding at pH 7.4 on IAM PC.DD2 HPLC column; format: physicochemical; parameters: key to CHI IAM: approximates acetonitrile concentration (%) in mobile phase at elution; conditions: for log k IAM: pH 7.4, derived from CHI IAM by equation 1; for CHI IAM: pH 7.4
Procedure: The phospholipid-binding was measured using an IAM PC.DD2 column with dimensions of 100 x 4.6 mm (Regis Technologies Inc., Morton Grove, IL, USA). The gradient retention times were measured using a 50 mM ammonium acetate mobile phase with the pH adjusted to 7.4. The mobile phase flow rate was 1.5 mL/min. […] The cycle time was 6 min, plus an additional 1 min equilibration time was applied while the injector prepared for the next injection. The gradient retention times were calibrated with the acetophenone homologues for which the CHI IAM values have been established using isocratic measurements. […] The CHI Index on the IAM column (CHI IAM) approximates the acetonitrile concentration in the mobile phase when the compound elutes. […] The CHI IAM values have been converted to log k IAM values derived from the CHI IAM values using equation 1. It represents the equivalent value derived from several isocratic measurements with extrapolated log retention factors to 100 % aqueous mobile phase. The log k IAM values can be converted to log K (IAM) values and show linear relationships with the octanol/water partition coefficients.

[6] = system: hERG channel; conditions: cited from earlier work
[7] = literature values, mean where several reported, molar

Row | Charge [4] | log k HSA ([2]; human, pH 7.4) | log k AGP ([1]; pH 7.4) | Structure (SMILES) | log k AGP ([1]; pH 7.4, Chiralpak AGP) | log k HSA ([2]; pH 7.4, Chiralpak HSA) | chromatographic logD [3] | chromatographic logP [3] | log k IAM [5] | hERG pIC50 [6, 7] | hERG pIC50 [6] | CHI IAM [5]
1 | Basic | – | – | CC(C)COCC(CN(Cc1ccccc1)c1ccccc1)N1CCCC1 (stereo not drawn) [Bepridil] | 1.14 | 1.27 | 4.4 | 6.62 | 3.08 | 6.42 | – | –
2 | Neutral | – | – | COC(=O)C1=C(C)NC(C)=C(C(=O)OC(C)C)C1c1cccc2nonc12 (stereo not drawn) [Isradipine] | 1.32 | 1.19 | 3.25 | 3.29 | 2.21 | 5.71 | – | –
3 | – | – | – | COc1cc2nc(N(C)CCCNC(=O)C3CCCO3)nc(N)c2cc1OC (stereo not drawn) [Alfuzosin] | 0.32 | 0.08 | – | – | – | – | 4.28 | –
4 | Weak Base | – | – | O=C(CCCN1CC=C(n2c(=O)[nH]c3ccccc32)CC1)c1ccc(F)cc1 [Droperidol] | 1.69 | 0.98 | 2.26 | 2.68 | – | – | – | –
5 | Weak Base | – | – | O=c1[nH]c2ccccc2n1CCCN1CCC(n2c(=O)[nH]c3cc(Cl)ccc32)CC1 [Domperidone] | – | 1.02 | 1.37 | 2.13 | 2.42 | – | – | 43.47
6 | Zwitterionic | 0.54 | – | COc1c(N2C[C@@H]3CCCN[C@@H]3C2)c(F)cc2c(=O)c(C(=O)O)cn(C3CC3)c12 [Moxifloxacin] | – | – | – | – | – | 3.83 | – | –
7 | Neutral | – | – | CC(=O)S[C@@H]1CC2=CC(=O)CC[C@]2(C)[C@H]2CC[C@@]3(C)[C@@H](CC[C@@]34CCC(=O)O4)[C@H]12 [Spironolactone] | 0.50 | 0.78 | 2.76 | 2.97 | 2.12 | – | – | 36.93
8 | Basic | – | – | CCOc1ccccc1OCCN[C@H](C)Cc1ccc(OC)c(S(N)(=O)=O)c1 [Tamsulosin] | 0.60 | 0.36 | 1.43 | 2.01 | 2.00 | 4.89 | – | –
9 | Basic | 0.15 | 0.23 | CCN(CC)CCNC(=O)c1cc(Cl)c(N)cc1OC [Metoclopramide] | – | – | – | – | – | 5.27 | – | –
10 | Basic | – | – | CN1C2CCCC1CC(NC(=O)c1nn(C)c3ccccc13)C2 (stereo not drawn) [Granisetron] | 0.52 | 0.34 | 0.79 | 2.5 | 2.53 | – | – | –
11 | Basic | – | – | COCCc1ccc(OCC(O)CNC(C)C)cc1 (stereo not drawn) [Metoprolol] | -0.27 | -0.72 | 0.77 | – | 2.05 | 3.84 | – | 35.38
12 | Weak Base | – | – | CN1CCN(C2=Nc3cc(Cl)ccc3Nc3ccccc32)CC1 [Clozapine] | 0.99 | 1.04 | 2.6 | 3.05 | 2.83 | – | – | 52.42
13 | Weak Base | – | – | O=c1n(CCCN2CCN(c3cccc(Cl)c3)CC2)nc2ccccn12 [Trazodone] | 0.46 | – | 2.51 | 2.59 | 1.93 | 5.30 | – | –
14 | Weak Base | – | – | CC(C)(C)NC(=O)[C@@H]1C[C@@H]2CCCC[C@@H]2CN1C[C@@H](O)[C@H](Cc1ccccc1)NC(=O)[C@H](CC(N)=O)NC(=O)c1ccc2ccccc2n1 [Saquinavir] | 1.59 | – | 3.31 | 3.39 | 2.36 | 5.82 | – | 42.17
15 | Weak Base | – | – | CNCCCC1c2ccccc2C=Cc2ccccc21 [Protriptyline] | 1.03 | – | 1.72 | 4.7 | 2.79 | 5.30 | – | –

Row | Structure (SMILES) | Charge [4] | log k HSA ([2]; human, pH 7.4) | log k AGP ([1]; pH 7.4) | log k AGP ([1]; pH 7.4, Chiralpak AGP) | log k HSA ([2]; pH 7.4, Chiralpak HSA) | chromatographic logD [3] | chromatographic logP [3] | log k IAM [5] | hERG pIC50 [6, 7] | hERG pIC50 [6] | CHI IAM [5]
16 | COc1cc(N)c(Cl)cc1C(=O)NC1CCN(CCCOc2ccc(F)cc2)CC1OC (stereo not drawn) [Cisapride] | Basic | – | – | 0.84 | 1.11 | 2.65 | 3.17 | 2.35 | – | 6.88 | –
17 | COc1ccc(CCN2CCC(Nc3nc4ccccc4n3Cc3ccc(F)cc3)CC2)cc1 [Astemizole] | Basic | – | – | 1.12 | 1.17 | 2.68 | 3.52 | 2.77 | – | 6.69 | –
18 | O=C1Cc2cc(CCN3CCN(c4nsc5ccccc45)CC3)c(Cl)cc2N1 [Ziprasidone] | Weak Base | – | – | 1.09 | 1.42 | 2.98 | 2.96 | 2.62 | – | 6.44 | 47.92
19 | CN(CCOc1ccc(NS(C)(=O)=O)cc1)CCc1ccc(NS(C)(=O)=O)cc1 [Dofetilide] | Weak Base | – | – | 0.59 | -0.05 | 1.18 | 1.12 | – | – | 5.72 | –
20 | O=C(NCC1CCCCN1)c1cc(OCC(F)(F)F)ccc1OCC(F)(F)F (stereo not drawn) [Flecainide] | Basic | – | – | 0.16 | -0.05 | 1.68 | 3.01 | 2.33 | 5.25 | – | –
21 | CC[C@H]1OC(=O)[C@H](C)[C@@H](O[C@H]2C[C@@](C)(OC)[C@@H](O)[C@H](C)O2)[C@H](C)[C@@H](O[C@@H]2O[C@H](C)C[C@H](N(C)C)[C@H]2O)[C@](C)(OC)C[C@@H](C)C(=O)[C@H](C)[C@@H](O)[C@]1(C)O [Clarithromycin] | Basic | – | – | 0.20 | -0.24 | 1.9 | 4.55 | 2.70 | – | 4.32 | 49.68
22 | Nc1nnc(-c2cccc(Cl)c2Cl)c(N)n1 [Lamotrigine] | Weak Base | – | – | -0.33 | 0.16 | 0.86 | 0.81 | 1.49 | – | 3.55 | 23.25
23 | COc1ccc(CN(CCN(C)C)c2ccccn2)cc1 [Pyrilamine] | Basic | – | – | 0.49 | 0.44 | 1.72 | 3.32 | 2.56 | – | 5.18 | 46.62
24 | COc1cc2nc(N3CCN(C(=O)C4COc5ccccc5O4)CC3)nc(N)c2cc1OC (stereo not drawn) [Doxazosin] | Weak Base | – | – | 0.72 | 1.04 | 2.09 | 2.24 | 2.16 | 6.03 | – | –
25 | O=c1[nH]c2ccccc2n1C1CCN(CCCC(c2ccc(F)cc2)c2ccc(F)cc2)CC1 [Pimozide] | Weak Base | – | – | 1.47 | 1.41 | 3.03 | 3.89 | 2.83 | – | 6.43 | –
26 | OC(c1cc(C(F)(F)F)nc2c(C(F)(F)F)cccc12)C1CCCCN1 (stereo not drawn) [Mefloquine] | Basic | – | – | 1.11 | 1.38 | 2.18 | 4.22 | – | – | 5.45 | –
27 | Clc1ccc(COC(Cn2ccnc2)c2ccc(Cl)cc2Cl)c(Cl)c1 (stereo not drawn) [Miconazole] | Weak Base | – | – | 1.26 | – | 4.64 | 4.7 | 2.89 | – | 5.68 | 53.72
28 | C[C@H]1COc2c(N3CCN(C)CC3)c(F)cc3c(=O)c(C(=O)O)cn1c23 [Levofloxacin] | Zwitterionic | – | – | -0.74 | – | 0.54 | – | 1.73 | – | 2.93 | 28.55
